# Assay results reported in US7410975B2, “Small molecule toll-like receptor (TLR) antagonists” (Coley Pharmaceutical Group, Inc., priority 2003, dated 2008).
# Molecular target: T1, human TLR8 (hTLR8) (Homo sapiens, UniProt Q9NR97)
# T1 construct: expressed in transfected cells
# T1 sequence (Q9NR97 27-1041): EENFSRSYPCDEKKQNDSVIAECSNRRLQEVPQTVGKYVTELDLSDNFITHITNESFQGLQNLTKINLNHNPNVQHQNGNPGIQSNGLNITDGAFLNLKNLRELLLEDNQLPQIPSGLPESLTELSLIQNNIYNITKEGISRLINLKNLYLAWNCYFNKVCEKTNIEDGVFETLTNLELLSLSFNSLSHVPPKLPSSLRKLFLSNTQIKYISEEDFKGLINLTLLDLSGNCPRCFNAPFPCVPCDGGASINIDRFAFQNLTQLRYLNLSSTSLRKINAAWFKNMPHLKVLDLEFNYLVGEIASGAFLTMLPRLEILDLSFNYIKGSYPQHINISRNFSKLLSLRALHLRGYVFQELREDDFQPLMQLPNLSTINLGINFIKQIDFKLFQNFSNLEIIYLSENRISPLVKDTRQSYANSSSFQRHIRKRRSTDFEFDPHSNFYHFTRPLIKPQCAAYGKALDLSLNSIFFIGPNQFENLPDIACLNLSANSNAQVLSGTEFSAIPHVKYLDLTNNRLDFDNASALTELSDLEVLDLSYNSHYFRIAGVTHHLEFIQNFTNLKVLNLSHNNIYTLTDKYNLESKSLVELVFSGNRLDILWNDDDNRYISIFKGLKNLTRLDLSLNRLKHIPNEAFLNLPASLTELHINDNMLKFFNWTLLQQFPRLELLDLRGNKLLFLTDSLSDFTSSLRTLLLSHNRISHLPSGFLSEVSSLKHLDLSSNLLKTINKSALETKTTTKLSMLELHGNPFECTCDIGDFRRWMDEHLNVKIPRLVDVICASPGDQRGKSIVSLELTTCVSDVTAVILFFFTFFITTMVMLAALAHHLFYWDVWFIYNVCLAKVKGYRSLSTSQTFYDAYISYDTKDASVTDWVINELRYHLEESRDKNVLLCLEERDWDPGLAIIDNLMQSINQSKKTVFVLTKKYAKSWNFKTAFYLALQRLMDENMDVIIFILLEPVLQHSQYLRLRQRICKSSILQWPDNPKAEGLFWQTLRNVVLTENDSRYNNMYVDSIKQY
# Assay: Antagonist screen, hTLR8-NFκB-293 cells, NF-κB-luciferase reporter, with EC50 of R848
# Format: cell-based
# Settings: compound at 0.5, 5, 50 μg/ml; EC50 concentration of R848; 16 h; NF-κB-luciferase
# Description: The method is described in greater detail as follows. The cells for each individual cell clone (hTLR3-NFκB-293, hTLR7-NFκB-293, hTLR8-NFκB-293 and hTLR9-NFκB-293) were counted and seeded one day before the stimulation at 1.5×10^4 cells per well in 96-well cell culture plates. To become adherent the cells were incubated after seeding overnight at 37° C. in 5% CO2 humidified air.
# The screen for each compound was performed at the same time for all of the receptors TLR3, TLR7, TLR8 and TLR9. Up to fifteen test compounds, each assayed in duplicate at each of three different final concentrations (0.5 μg/ml, 5 μg/ml, and 50 μg/ml), were used for 16 h cell stimulation on a single multiwell culture plate. A 4× final concentration master plate was created to prepare the different test compounds before they were added to the cells.
# Controls were added as duplicates individually for each cell clone on the cell culture plate. Positive controls were used as follows (final concentrations): 50 μg/ml poly(I:C) for hTLR3-NFκB-293; 8 μM resiquimod (R848) for hTLR7-NFκB-293; 30 μM R848 for hTLR8-NFκB-293; and 2.5 μM CpG-ODN 2006 for hTLR9-NFκB-293. Media alone was used as negative control. After addition of controls and small molecules, the cell clones were additionally stimulated with the EC50 concentration of the appropriate receptor-specific ligand.
# The mean value of wells H2 and H5 (each with cells and EC50 concentration of the appropriate receptor-specific ligand) divided by the mean of wells H3 and H6 (each with cells alone) yielded the baseline response (i.e., fold induction of luciferase activity) to EC50 concentration of the appropriate receptor-specific ligand.
# After 16 h stimulation the supernatant was removed and the cells treated with lysis buffer and stored at −80° C. before measuring.
# For each screen result a graphical documentation was performed.
# The baseline result (measured with addition of the EC50 concentration of the receptor-specific ligand) for each cell culture plate was measured as described above. Antagonistic effects were measured by down regulation compared to the baseline. Antagonists were scored as follows: • 13: compounds for which there was clear down regulation at 0.5 μg/ml, 5 μg/ml, and 50 μg/ml; • 12: compounds for which there was clear down regulation at 5 μg/ml and 50 μg/ml; • 11: compounds for which there was clear down regulation only at 50 μg/ml; • —: compounds for which there was no clear down regulation even at 50 μg/ml. Agonists
# Results were expressed as fold induction over baseline luciferase activity measured in the absence of R848. […] Additional screening was performed in like manner using additional small molecules selected from another library or specifically prepared for this purpose. Scoring is reported as above but as applied to TLR8.
row,Compound,"hTLR8 (inhibitory effect, antagonist score)"
1,Cc1cc(OC(=O)C2C3CCCCC32)c(C(C)C)cc1C1(c2cc(C(C)C)c(OC(=O)C3C4CCCCC43)cc2C)OC(=O)c2ccccc21 (centres unmarked) [compound 974],11 (compounds for which there was clear down regulation only at 50 μg/ml)
2,CCN(CC)CCCN(CC(=O)C1c2ccc(Cl)cc2NC(=O)c2ccccc21)C(=O)c1ccccc1 (centres unmarked) [compound 1013],— (compounds for which there was no clear down regulation even at 50 μg/ml)
3,O=C1c2ccccc2C(=O)c2c1ccc1c(=O)n(C3CCCCC3)[nH]c21 [compound 1015],11 (compounds for which there was clear down regulation only at 50 μg/ml)
4,CCOC(=O)c1cc([N+](=O)[O-])cc2c1-c1ccc([N+](=O)[O-])cc1C2=C(C#N)C#N [compound 1039],11 (compounds for which there was clear down regulation only at 50 μg/ml)
5,O=C1c2ccccc2C(=O)c2c1ccc1c(=O)n(-c3ccccc3)[nH]c21 [compound 1042],"13 (compounds for which there was clear down regulation at 0.5 μg/ml, 5 μg/ml, and 50 μg/ml)"
6,O=C(c1cccc2c1-c1ccccc1/C2=N\O)N1CCCCC1 [compound 1050],11 (compounds for which there was clear down regulation only at 50 μg/ml)
7,NC(=O)c1cccc2c1-c1ccccc1C2 [compound 1132],11 (compounds for which there was clear down regulation only at 50 μg/ml)
8,NC(=O)c1cc(N)c2c(c1N)C(=O)c1ccccc1C2=O [compound 1158],— (compounds for which there was no clear down regulation even at 50 μg/ml)
9,CC(=O)Oc1cc(C)c(C2(c3cc(C(C)C)c(OC(C)=O)cc3C)OC(=O)c3ccccc32)cc1C(C)C [compound 1161],12 (compounds for which there was clear down regulation at 5 μg/ml and 50 μg/ml)
10,COC(=O)c1cccc(C(O)(c2ccccc2)c2ccccc2)c1S(=O)(=O)C(C)(C)C [compound 1187],11 (compounds for which there was clear down regulation only at 50 μg/ml)
11,CCOCCOC(=O)c1cc([N+](=O)[O-])cc2c1-c1c(cc([N+](=O)[O-])cc1[N+](=O)[O-])C2=C(C#N)C#N [compound 1241],— (compounds for which there was no clear down regulation even at 50 μg/ml)
12,CC1CCN(C(=O)c2cccc3c2-c2ccccc2C3=O)CC1 [compound 1243],11 (compounds for which there was clear down regulation only at 50 μg/ml)
13,Cc1cccc(C2(c3cccc(C)c3)OC(=O)c3ccccc32)c1 [compound 1308],12 (compounds for which there was clear down regulation at 5 μg/ml and 50 μg/ml)
14,COCCCNC(=O)c1ccc2c(c1N)C(=O)c1ccccc1C2=O [compound 1337],11 (compounds for which there was clear down regulation only at 50 μg/ml)
15,O=C1Nc2ccccc2Oc2ccc([N+](=O)[O-])cc21 [compound 1352],— (compounds for which there was no clear down regulation even at 50 μg/ml)
16,Flunarizinehydrochloride [compound 312],— (compounds for which there was no clear down regulation even at 50 μg/ml)
17,Maprotilinehydrochloride [compound 346],11 (compounds for which there was clear down regulation only at 50 μg/ml)
18,Metixene hydrochloride [compound 491],11 (compounds for which there was clear down regulation only at 50 μg/ml)
19,Prochlorperazinedimaleate [compound 399],11 (compounds for which there was clear down regulation only at 50 μg/ml)
20,Trifluoperazinedihydrochloride [compound 313],11 (compounds for which there was clear down regulation only at 50 μg/ml)
